Laboratory results: ChEMBL document CHEMBL1142466, “Itk kinase inhibitors: initial efforts to improve the metabolical stability and the cell activity of the benzimidazole lead” (Bioorg Med Chem Lett, 2008)
pIC50: −log10 of the molar value. Blank lines part the entries; values can stand above or below the compound they belong to.

Legend:
Mus musculus = experiment: Inhibition of anti-CD3-induced IL2 production in sc dosed mouse; type: functional, organism-based
Insulin receptor = Insulin receptor (Homo sapiens, UniProt P06213); experiment: Inhibition of IRK
[1] = target: T1, Tyrosine-protein kinase ITK/TSK (Homo sapiens, UniProt Q08881); experiment: Inhibition of recombinant ITK by DELFIA assay
T1 sequence (Q08881 whole entry): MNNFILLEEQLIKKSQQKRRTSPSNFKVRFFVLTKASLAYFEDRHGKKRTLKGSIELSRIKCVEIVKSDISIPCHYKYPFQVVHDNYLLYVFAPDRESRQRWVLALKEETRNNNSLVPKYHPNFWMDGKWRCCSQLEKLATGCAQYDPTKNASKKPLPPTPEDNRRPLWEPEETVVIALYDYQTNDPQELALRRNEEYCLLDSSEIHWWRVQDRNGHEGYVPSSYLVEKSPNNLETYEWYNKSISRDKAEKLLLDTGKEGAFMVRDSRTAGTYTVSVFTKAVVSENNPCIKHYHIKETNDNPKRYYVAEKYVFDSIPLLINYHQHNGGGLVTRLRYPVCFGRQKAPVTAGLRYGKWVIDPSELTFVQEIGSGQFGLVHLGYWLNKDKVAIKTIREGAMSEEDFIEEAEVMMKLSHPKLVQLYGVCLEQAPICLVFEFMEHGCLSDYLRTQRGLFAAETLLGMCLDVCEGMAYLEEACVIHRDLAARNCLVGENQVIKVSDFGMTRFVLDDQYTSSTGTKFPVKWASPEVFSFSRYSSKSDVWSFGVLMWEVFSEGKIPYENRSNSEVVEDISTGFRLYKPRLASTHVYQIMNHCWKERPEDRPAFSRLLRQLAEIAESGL

Cytochrome P450 3A4 = Cytochrome P450 3A4 (Homo sapiens, UniProt P08684); experiment: Inhibition of CYP3A4; type: ADME
[2] = target: T2, Tyrosine-protein kinase TXK (Homo sapiens, UniProt P42681); experiment: Inhibition of TXK
T2 sequence (P42681 whole entry): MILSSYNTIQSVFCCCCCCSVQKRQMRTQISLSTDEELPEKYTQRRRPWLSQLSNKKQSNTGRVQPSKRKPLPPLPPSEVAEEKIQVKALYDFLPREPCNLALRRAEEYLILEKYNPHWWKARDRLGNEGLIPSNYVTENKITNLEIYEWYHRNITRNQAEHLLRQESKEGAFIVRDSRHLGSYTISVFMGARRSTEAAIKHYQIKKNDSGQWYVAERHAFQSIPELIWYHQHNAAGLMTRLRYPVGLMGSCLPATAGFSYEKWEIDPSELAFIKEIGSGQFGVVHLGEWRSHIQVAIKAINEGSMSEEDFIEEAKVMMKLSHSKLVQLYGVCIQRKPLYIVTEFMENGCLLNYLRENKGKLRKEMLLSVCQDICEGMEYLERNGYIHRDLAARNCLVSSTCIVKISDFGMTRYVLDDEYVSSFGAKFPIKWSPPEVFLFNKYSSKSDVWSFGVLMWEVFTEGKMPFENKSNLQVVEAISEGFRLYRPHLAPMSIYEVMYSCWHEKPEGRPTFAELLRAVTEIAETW

Cytochrome P450 2C9 = Cytochrome P450 2C9 (Homo sapiens, UniProt P11712); experiment: Inhibition of CYP2C9; type: ADME
[3] = target: T3, Tyrosine-protein kinase Tec (Homo sapiens, UniProt P42680); experiment: Inhibition of Tec kinase
T3 sequence (P42680 whole entry): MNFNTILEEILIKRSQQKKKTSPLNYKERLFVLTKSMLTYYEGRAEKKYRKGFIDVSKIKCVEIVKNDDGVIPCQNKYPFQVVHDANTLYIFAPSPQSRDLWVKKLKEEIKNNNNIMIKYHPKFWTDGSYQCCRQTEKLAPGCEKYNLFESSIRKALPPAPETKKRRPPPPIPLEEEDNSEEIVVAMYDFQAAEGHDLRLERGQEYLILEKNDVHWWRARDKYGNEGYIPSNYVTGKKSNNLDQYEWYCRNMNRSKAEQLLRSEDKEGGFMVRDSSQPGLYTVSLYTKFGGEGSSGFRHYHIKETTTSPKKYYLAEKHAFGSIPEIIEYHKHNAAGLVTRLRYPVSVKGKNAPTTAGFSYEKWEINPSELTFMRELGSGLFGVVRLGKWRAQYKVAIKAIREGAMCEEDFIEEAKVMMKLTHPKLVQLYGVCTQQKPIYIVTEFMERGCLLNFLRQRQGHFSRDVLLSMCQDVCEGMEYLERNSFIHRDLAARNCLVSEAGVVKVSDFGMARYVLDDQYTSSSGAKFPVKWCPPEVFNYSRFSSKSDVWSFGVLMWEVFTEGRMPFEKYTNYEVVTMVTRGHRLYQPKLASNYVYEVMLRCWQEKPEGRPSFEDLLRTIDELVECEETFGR

[4] = target: Tyrosine-protein kinase Lyn (Homo sapiens, UniProt P07948); experiment: Inhibition of Lyn
Jurkat = experiment: Cytotoxicity against human JURKAT cells; type: functional; conditions: read-out: TC50 (the source's name)

Chain of Cytochrome P450 2C9 (P11712 whole entry): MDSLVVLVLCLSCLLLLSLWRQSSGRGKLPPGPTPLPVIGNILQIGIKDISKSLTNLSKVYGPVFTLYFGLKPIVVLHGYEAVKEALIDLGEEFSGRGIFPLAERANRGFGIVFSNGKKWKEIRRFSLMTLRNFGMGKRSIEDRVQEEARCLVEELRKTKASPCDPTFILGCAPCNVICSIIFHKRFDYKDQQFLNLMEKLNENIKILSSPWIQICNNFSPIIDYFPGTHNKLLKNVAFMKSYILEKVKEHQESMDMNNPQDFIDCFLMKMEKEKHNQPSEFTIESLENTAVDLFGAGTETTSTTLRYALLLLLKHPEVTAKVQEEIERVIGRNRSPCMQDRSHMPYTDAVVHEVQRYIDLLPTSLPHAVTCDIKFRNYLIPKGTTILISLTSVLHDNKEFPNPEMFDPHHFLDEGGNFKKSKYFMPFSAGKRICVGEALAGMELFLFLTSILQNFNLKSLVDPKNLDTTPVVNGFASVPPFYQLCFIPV
Chain of Cytochrome P450 3A4 (P08684 whole entry): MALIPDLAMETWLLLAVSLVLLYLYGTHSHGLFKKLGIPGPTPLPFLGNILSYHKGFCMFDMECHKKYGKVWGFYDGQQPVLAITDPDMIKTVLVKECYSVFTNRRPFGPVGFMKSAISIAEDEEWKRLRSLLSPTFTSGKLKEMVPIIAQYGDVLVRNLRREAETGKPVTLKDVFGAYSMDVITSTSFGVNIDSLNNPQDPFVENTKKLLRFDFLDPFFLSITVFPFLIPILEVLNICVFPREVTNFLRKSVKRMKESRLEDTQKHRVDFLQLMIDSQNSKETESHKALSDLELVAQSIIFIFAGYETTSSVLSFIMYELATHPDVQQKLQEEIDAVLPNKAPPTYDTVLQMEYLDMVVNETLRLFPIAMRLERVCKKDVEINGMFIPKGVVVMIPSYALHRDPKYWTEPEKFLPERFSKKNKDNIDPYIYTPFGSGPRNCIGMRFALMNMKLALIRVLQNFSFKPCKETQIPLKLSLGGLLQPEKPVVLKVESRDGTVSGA
Chain of Tyrosine-protein kinase Lyn (P07948 whole entry): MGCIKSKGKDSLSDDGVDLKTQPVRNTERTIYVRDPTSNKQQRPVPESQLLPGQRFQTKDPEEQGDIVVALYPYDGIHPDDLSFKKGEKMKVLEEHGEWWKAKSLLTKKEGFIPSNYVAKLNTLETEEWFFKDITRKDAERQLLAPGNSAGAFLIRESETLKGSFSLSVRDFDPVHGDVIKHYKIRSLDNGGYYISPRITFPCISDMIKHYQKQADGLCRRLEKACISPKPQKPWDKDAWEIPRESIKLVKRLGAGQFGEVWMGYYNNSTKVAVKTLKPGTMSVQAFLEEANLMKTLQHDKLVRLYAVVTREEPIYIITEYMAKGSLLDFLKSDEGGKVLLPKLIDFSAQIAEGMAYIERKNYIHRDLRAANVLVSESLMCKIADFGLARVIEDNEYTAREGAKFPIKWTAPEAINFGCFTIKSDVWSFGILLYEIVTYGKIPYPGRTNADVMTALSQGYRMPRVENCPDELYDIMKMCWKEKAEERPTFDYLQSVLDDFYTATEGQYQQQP
Chain of Insulin receptor (P06213 28-758 limits assumed): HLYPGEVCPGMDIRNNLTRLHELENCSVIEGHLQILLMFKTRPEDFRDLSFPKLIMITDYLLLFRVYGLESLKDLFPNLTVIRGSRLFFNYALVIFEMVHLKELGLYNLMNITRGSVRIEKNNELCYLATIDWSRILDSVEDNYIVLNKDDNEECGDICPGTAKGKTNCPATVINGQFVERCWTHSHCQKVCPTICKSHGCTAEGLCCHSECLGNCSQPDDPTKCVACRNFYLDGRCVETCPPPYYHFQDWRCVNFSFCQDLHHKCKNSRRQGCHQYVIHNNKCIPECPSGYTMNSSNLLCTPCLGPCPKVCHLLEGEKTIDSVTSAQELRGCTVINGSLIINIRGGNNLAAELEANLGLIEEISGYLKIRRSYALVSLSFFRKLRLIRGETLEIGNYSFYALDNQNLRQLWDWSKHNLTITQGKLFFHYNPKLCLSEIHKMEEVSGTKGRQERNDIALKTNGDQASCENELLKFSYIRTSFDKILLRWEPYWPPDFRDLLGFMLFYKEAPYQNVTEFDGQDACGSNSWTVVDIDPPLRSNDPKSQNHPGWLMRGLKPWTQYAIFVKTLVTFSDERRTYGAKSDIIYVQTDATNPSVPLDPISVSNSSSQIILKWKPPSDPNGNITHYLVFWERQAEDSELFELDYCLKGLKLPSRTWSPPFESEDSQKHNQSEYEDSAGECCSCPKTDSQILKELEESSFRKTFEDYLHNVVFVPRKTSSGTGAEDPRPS
Chain of Insulin receptor (P06213 763-1382 limits assumed): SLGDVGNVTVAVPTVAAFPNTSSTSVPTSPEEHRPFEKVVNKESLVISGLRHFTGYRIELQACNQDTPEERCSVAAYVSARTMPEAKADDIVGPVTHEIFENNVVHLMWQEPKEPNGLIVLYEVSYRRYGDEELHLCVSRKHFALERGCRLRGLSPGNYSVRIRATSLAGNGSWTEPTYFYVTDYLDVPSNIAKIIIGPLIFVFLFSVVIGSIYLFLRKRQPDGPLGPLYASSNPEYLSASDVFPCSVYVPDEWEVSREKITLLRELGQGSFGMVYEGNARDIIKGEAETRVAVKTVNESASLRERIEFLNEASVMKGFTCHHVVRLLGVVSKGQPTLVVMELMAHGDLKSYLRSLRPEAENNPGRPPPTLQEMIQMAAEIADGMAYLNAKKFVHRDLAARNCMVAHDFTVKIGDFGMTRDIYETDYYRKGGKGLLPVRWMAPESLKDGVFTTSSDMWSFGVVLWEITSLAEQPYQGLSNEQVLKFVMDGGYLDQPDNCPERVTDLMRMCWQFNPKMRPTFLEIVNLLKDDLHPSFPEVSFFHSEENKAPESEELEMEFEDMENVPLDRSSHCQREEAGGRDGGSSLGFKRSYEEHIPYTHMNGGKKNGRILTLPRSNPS

Structure (SMILES): CC(=O)N1CCN(C(=O)c2cc(CSc3cnc(NC(=O)c4ccc(CNC(C)C(C)(C)C)cc4)s3)cc(C)c2C)CC1 (configuration not stated)
Activity (Mus musculus): Dose-dependent effect

Structure (SMILES): CCN(C(=O)c1ccccc1)c1ccc2c(c1)nc(NC(=O)c1ccc(C#N)cc1)n2CCC(N)=O
Activity (Cytochrome P450 3A4): > 30 µM | pIC50 [2]: 6.51 | Activity (Cytochrome P450 2C9): > 30 µM | pIC50 [3]: < 5.00 | pIC50 (Insulin receptor): < 5.00 | pIC50 [4]: < 5.00 | CC50 (Jurkat): > 10 µM

Structure (SMILES): CN(C(=O)c1ccccc1)c1ccc2c(c1)nc(NC(=O)c1ccno1)n2CCC(N)=O
pIC50 (Insulin receptor): < 5.00

Structure (SMILES): CCN(C(=O)c1ccccc1)c1ccc2c(c1)nc(NC(=O)c1ccno1)n2CCC(N)=O
pIC50 [1]: 7.57

Second part, led by results:

pIC50 (Insulin receptor): 6.49 | pIC50 [1]: 8.00
Structure (SMILES): CN(C(=O)c1ccccc1)c1ccc2c(c1)nc(NC(=O)c1ccoc1)n2CCC(N)=O

Activity (Cytochrome P450 3A4): > 30 µM | pIC50 [2]: 6.25 | Activity (Cytochrome P450 2C9): > 30 µM | pIC50 [3]: < 5.00 | pIC50 (Insulin receptor): < 5.00 | pIC50 [4]: < 5.00
Structure (SMILES): CN(C(=O)c1ccccc1)c1ccc2c(c1)nc(NC(=O)c1ccc(C#N)cc1)n2CCC(N)=O
CC50 (Jurkat): > 10 µM

pIC50 (Insulin receptor): < 5.00
Structure (SMILES): Cc1cc(C(=O)Nc2nc3cc(N(C)C(=O)c4ccccc4)ccc3n2CCC(N)=O)ccc1C#N

pIC50 (Insulin receptor): < 5.00
Structure (SMILES): CN(C(=O)c1ccccc1)c1ccc2c(c1)nc(NC(=O)c1ccc(C#N)nc1)n2CCC(N)=O

Activity (Cytochrome P450 3A4): > 30 µM | pIC50 [2]: 6.30 | Activity (Cytochrome P450 2C9): > 30 µM | pIC50 [3]: < 5.00 | pIC50 [4]: < 5.00
Structure (SMILES): CN(C(=O)c1ccccc1)c1ccc2c(c1)nc(NC(=O)c1ccc(Cl)cc1)n2CCC(N)=O
CC50 (Jurkat): 5.8 µM
